This note sets out measurements from patent US20240343722A1 (VIFOR (INTERNATIONAL) AG, priority 2021, published 2024).

Structures are written as SMILES.

The experiment has as its target T1, ferroportin (Fpn) (Mus musculus, UniProt Q9JHI9).
T1 construct: endogenous in cells; host or cells: J774 mouse macrophage cell line, induced with Fe(III)NTA
T1 sequence (Q9JHI9 1-570): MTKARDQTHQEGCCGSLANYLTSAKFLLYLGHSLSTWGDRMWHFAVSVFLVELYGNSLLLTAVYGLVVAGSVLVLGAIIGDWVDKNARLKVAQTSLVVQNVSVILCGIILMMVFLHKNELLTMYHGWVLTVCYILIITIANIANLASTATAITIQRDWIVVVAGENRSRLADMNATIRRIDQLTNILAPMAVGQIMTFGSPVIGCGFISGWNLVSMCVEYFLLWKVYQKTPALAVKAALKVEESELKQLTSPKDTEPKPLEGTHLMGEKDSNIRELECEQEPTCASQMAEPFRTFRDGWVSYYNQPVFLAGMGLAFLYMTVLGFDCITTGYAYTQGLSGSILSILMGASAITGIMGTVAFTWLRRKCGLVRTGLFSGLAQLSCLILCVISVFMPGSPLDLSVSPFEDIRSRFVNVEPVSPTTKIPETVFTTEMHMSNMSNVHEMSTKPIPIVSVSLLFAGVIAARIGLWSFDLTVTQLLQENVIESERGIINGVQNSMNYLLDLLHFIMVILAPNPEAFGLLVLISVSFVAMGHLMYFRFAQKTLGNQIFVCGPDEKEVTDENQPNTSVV
As to the kind of experiment: Hepcidin Internalization Assay (J774). The format is cell-based. The conditions noted are these: Average (AVE) IC50 of multiple measurements; inhibition of TMR-hepcidin (25 nM) internalization into J774 cells. The text has this: This cellular assay allows quantification of the binding of hepcidin to ferroportin (Fpn) through microscopic detection of internalization of a fluorescently labeled hepcidin into J774 cells. […] Binding of hepcidin to Fpn triggers internalization and degradation of both hepcidin and Fpn. […] Therefore, microscopic detection of cell-associated TMR fluorescence is a measure of hepcidin binding to Fpn and internalization of hepcidin and Fpn. If TMR-hepcidin is prevented from binding to Fpn, cellular TMR fluorescence remains low (Durrenberger et al, 2013). The effect of small molecular weight Fpn inhibitor compounds in this assay was evaluated in vitro as described below. […] After removal of the paraformaldehyde solution, cells were washed 3 times with PBS leaving 100 μl per well and the plates were sealed with foil plate seal. TMR (530-550 nm excitation/575-625 nm emission/400 ms exposure time) and Hoechst 33342 (360-370 nm excitation/420-460 nm emission /10 ms exposure time) fluorescence images were acquired using a […] imager (Olympus) with a 20× high NA objective. […] The acquired image data was analysed with the […] analysis software. […] IC50 values were calculated with the Sum(Mean) raw data using “log(inhibitor) vs. response” curve fitting of Prism 5 software (GraphPad Software Inc., version 5.02). For each data set the fit of the “log(inhibitor) vs. response (three parameters)” model was compared to the fit of the “log(inhibitor) vs. response - Variable slope (four parameters)” model and the IC50 data of the preferred model was used.
`CCCCn1c(CCNCCc2nc(C(=O)NCc3ncccc3F)co2)nc2ccc(-c3ccccc3)cc21` [Example 41, 2-(2-((2-(1-butyl-6-phenyl-1 H-benzo[d]imidazol-2-yl)ethyl)amino)ethyl)-N-((3-fluoropyridin-2-yl)methyl)oxazole-4-carboxamide] displayed an IC50 of 4 nM. The figure for `CCCCn1c(CCNCCc2nc(C(=O)NCc3ncccc3F)co2)nc2cc(-c3ccccc3)ccc21` [Example 42, 2-(2-((2-(1-butyl-5-phenyl-1 H-benzo[d]imidazol-2-yl)ethyl)amino)ethyl)-N-((3-fluoropyridin-2-yl)methyl)oxazole-4-carboxamide] is 2.4 nM.

`O=C(NCc1ncccc1F)c1coc(CCNCCc2nc3ccccc3n2CCc2nc3ccccc3[nH]2)n1` [Example 44, 2-(2-((2-(1-(2-(1H-benzo[d]imidazol-2-yl)ethyl)-1 H-benzo[d]imidazol-2-yl)ethyl)amino)ethyl)-N-((3-fluoropyridin-2-yl)methyl)oxazole-4-carboxamide] registered an IC50 of 1 nM. As for `COc1cccc(CCn2c(CCNCCc3nc(C(=O)NCc4ncccc4F)co3)nc3ccccc32)c1` [Example 45, N-((3-fluoropyridin-2-yl)methyl)-2-(2-((2-(1-(3-methoxyphenethyl)-1 H-benzo[d]imidazol-2-yl)ethyl)amino)ethyl)oxazole-4-carboxamide], the IC50 stood at 0.8 nM. This IC50 and that of the molecule before are within 1.5-fold of each other. As for `CCCCn1c(CCNCCc2nc(C(=O)NCc3ncccc3OC)co2)nc2ccccc21` [Example 46, 2-(2-((2-(1-butyl-1 H-benzo[d]imidazol-2-yl)ethyl)amino)ethyl)-N-((3-methoxypyridin-2-yl)methyl)oxazole-4-carboxamide], half-maximal inhibition (IC50) was put at 1 nM. This IC50 and that of the molecule before are within 1.5-fold of each other. The figure for `CCCCn1c(CCNCCc2nc(C(=O)NCc3ncccc3C(F)(F)F)co2)nc2ccccc21` [Example 47, 2-(2-((2-(1-butyl-1 H-benzo[d]imidazol-2-yl)ethyl)amino)ethyl)-N-((3-(trifluoromethyl)pyridin-2-yl)methyl)oxazole-4-carboxamide] is 8 nM. The figure for `COCCOCCn1c(CCNCCc2nc(C(=O)NCc3ncccc3F)co2)nc2ccccc21` [Example 48, N-((3-fluoropyridin-2-yl)methyl)-2-(2-((2-(1-(2-(2-methoxyethoxy)ethyl)-1 H-benzo[d]imidazol-2-yl)ethyl)amino)ethyl)oxazole-4-carboxamide] is 2 nM; for `CCCCn1c(C2CCN(CCc3nc(C(=O)NCc4ncccc4F)co3)CC2)nc2ccccc21` [Example 49, 2-(2-(4-(1-butyl-1 H-benzo[d]imidazol-2-yl)piperidin-1-yl)ethyl)-N-((3-fluoropyridin-2-yl)methyl)oxazole-4-carboxamide] it is 3300 nM; for `O=C(NCc1ncccc1F)c1coc(CCNCCc2nc3ccccc3n2CC2CC2)n1` [Example 50, 2-(2-((2-(1-(Cyclopropylmethyl)-1 H-benzo[d]imidazol-2-yl)ethyl)amino)ethyl)-N-((3-fluoropyridin-2-yl)methyl)oxazole-4-carboxamide] it is 0.8 nM.

With `O=C(NCc1ncccc1F)c1coc(CCNCCc2nc3ccccc3n2CC2CCCCC2)n1` [Example 51, 2-(2-((2-(1-(cyclohexylmethyl)-1H-benzo[d]imidazol-2-yl)ethyl)amino)ethyl)-N-((3-fluoropyridin-2-yl)methyl)oxazole-4-carboxamide], half-maximal inhibition (IC50) required 0.8 nM. The figure for `CCCCn1c(CC(C)(C)NCCc2nc(C(=O)NCc3ncccc3F)co2)nc2ccccc21` [Example 52, 2-(2-((1-(1-butyl-1 H-benzo[d]imidazol-2-yl)-2-methylpropan-2-yl)amino)ethyl)-N-((3-fluoropyridin-Z-yl)methyl)oxazole-4-carboxamide] is 625 nM.

`O=C(NCc1ncccc1F)c1coc(CCNCCc2nc3ccccc3n2CC(F)F)n1` [Example 53, 2-(2-((2-(1-(2,2-difluoroethyl)-1H-benzo[d]imidazol-2-yl)ethyl)amino)ethyl)-N-((3-fluoropyridin-2-yl)methyl)oxazole-4-carboxamide] came in with an IC50 of 5 nM. Regarding `O=C(NCc1ncccc1F)c1coc(CCNCCc2nc3ccccc3n2Cc2ccccc2Cl)n1` [Example 54, 2-(2-((2-(1-(2-chlorobenzyl)-1H-benzo[d]imidazol-2-yl)ethyl)amino)ethyl)-N-((3-fluoropyridin-2-yl)methyl)oxazole-4-carboxamide], the IC50 came out at 0.9 nM. The same measure for `O=C(NCc1ncccc1F)c1coc(CCNCCc2nc3ccccc3n2-c2ccccc2)n1` [Example 55, N-((3-fluoropyridin-2-yl)methyl)-2-(2-((2-(1-phenyl-1 H-benzo[d]imidazol-2-yl)ethyl)amino)ethyl)oxazole-4-carboxamide]: 1.4 nM; for `CN(C)CCn1c(CCNCCc2nc(C(=O)NCc3ncccc3F)co2)nc2ccccc21` [Example 56, 2-(2-((2-(1-(2-(dimethylamino)ethyl)-1 H-benzo[d]imidazol-2-yl)ethyl)amino)ethyl)-N-((3-fluoropyridin-2-yl)methyl)oxazole-4-carboxamide]: 9 nM. For the molecule `CC(C)OCCn1c(CCNCCc2nc(C(=O)NCc3ncccc3F)co2)nc2ccccc21` [Example 57, N-((3-fluoropyridin-2-yl)methyl)-2-(2-((2-(1-(2-isopropoxyethyl)-1 H-benzo[d]imidazol-2-yl)ethyl)amino)ethyl)oxazole-4-carboxamide], the IC50 came out at 1.4 nM. As to `O=C(NCc1ncccc1F)c1coc(CCNCCc2nc3ccccc3n2Cc2ccc(Cl)cc2)n1` [Example 58, 2-(2-((2-(1-(4-chlorobenzyl)-1H-benzo[d]imidazol-2-yl)ethyl)amino)ethyl)-N-((3-fluoropyridin-2-yl)methyl)oxazole-4-carboxamide], inhibition was half-maximal at 0.8 nM (IC50). Compared with the last molecule, the IC50 is about 1.7-fold lower.

The molecule `CCCCn1c(C(C)(C)CNCCc2nc(C(=O)NCc3ncccc3F)co2)nc2ccccc21` [Example 60, 2-(2-((2-(1-butyl-1 H-benzo[d]imidazol-2-yl)-2-methylpropyl)amino)ethyl)-N-((3-fluoropyridin-2-yl)methyl)oxazole-4-carboxamide] showed an IC50 of 355 nM. The figure for `CCCCn1c(C2(CNCCc3nc(C(=O)NCc4ncccc4F)co3)CCCCC2)nc2ccccc21` [Example 61, 2-(2-(((1-(1-butyl-1H-benzo[d]imidazol-2-yl)cyclohexyl)methyl)amino)ethyl)-N-((3-fluoropyridin-2-yl)methyl)oxazole-4-carboxamide] is 1430 nM; for `O=C(NCc1ncccc1F)c1coc(CCNCCc2nc3ccccc3n2Cc2ccncn2)n1` [Example 62, N-((3-fluoropyridin-2-yl)methyl)-2-(2-((2-(1-(pyrimidin-4-ylmethyl)-1 H-benzo[d]imidazol-2-yl)ethyl)amino)ethyl)oxazole-4-carboxamide] it is 8.5 nM; for `COc1cccc(-n2c(CCNCCc3nc(C(=O)NCc4ncccc4F)co3)nc3ccccc32)c1` [Example 63, N-((3-fluoropyridin-2-yl)methyl)-2-(2-((2-(1-(3-methoxyphenyl)-1H-benzo[d]imidazol-2-yl)ethyl)amino)ethyl)oxazole-4-carboxamide] it is 0.8 nM. The same measure for `O=C(NCc1ncccc1F)c1coc(CCNCCc2nc3ccccc3n2-c2cccc(Cl)c2)n1` [Example 64, 2-(2-((2-(1-(3-chlorophenyl)-1 H-benzo[d]imidazol-2-yl)ethyl)amino)ethyl)-N-((3-fluoropyridin-2-yl)methyl)oxazole-4-carboxamide]: 1.3 nM; for `O=C(NCc1ncccc1F)c1coc(CCNCCc2nc3cc4c(cc3n2CC2CC2)OCCO4)n1` [Example 65]: 1.2 nM; for `COCCOCCn1c(CCNCCc2nc(C(=O)NCc3ncccc3OC)co2)nc2cc3c(cc21)OCCO3` [Example 66, 2-(2-((2-(1-(2-(2-methoxyethoxy)ethyl)-6,7-dihydro-1 H-[1,4]dioxino[2′,3′:4,5]benzo[1,2-d]imidazol-2-yl)ethyl)amino)ethyl)-N-((3-methoxypyridin-2-yl)methyl)oxazole-4-carboxamide]: 5 nM.
